Measured values from PubChem BioAssay (NCI).
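Assay format: 96-well plates, 48-hour exposure. The concentration for full growth arrest is given as TGI.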

What was measured:
Experiment in all cases: NCI anticancer screen, dose series, 48 h
PC-3 prostate = test system: PC-3 prostate
KM12 colon = test system: KM12 colon
OVCAR-4 ovarian = test system: OVCAR-4 ovarian
SF-295 CNS = test system: SF-295 CNS
NCI/ADR-RES ovarian = test system: NCI/ADR-RES ovarian
OVCAR-3 ovarian = test system: OVCAR-3 ovarian
OVCAR-5 ovarian = test system: OVCAR-5 ovarian
A498 renal = test system: A498 renal
A549 NSCLC = test system: A549 NSCLC
NCI-H226 lung = test system: NCI-H226 lung
HOP-92 NSCLC = test system: HOP-92 NSCLC
SF-539 CNS = test system: SF-539 CNS
SK-OV-3 ovarian = test system: SK-OV-3 ovarian
HOP-62 NSCLC = test system: HOP-62 NSCLC
MCF7 breast = test system: MCF7 breast
RXF 393 renal = test system: RXF 393 renal
OVCAR-8 ovarian = test system: OVCAR-8 ovarian
SNB-75 CNS = test system: SNB-75 CNS
MALME-3M melanoma = test system: MALME-3M melanoma
IGROV1 ovarian = test system: IGROV1 ovarian
HS 578T breast = test system: HS 578T breast
TK-10 renal = test system: TK-10 renal
CAKI-1 renal = test system: CAKI-1 renal
HCC-2998 colon = test system: HCC-2998 colon
HCT-116 colon = test system: HCT-116 colon
UACC-257 melanoma = test system: UACC-257 melanoma
MDA-MB-435 = test system: MDA-MB-435
HCT-15 colon = test system: HCT-15 colon
UACC-62 melanoma = test system: UACC-62 melanoma
M14 melanoma = test system: M14 melanoma
SK-MEL-5 melanoma = test system: SK-MEL-5 melanoma
SR leukemia = test system: SR leukemia
MOLT-4 leukemia = test system: MOLT-4 leukemia
SF-268 CNS = test system: SF-268 CNS
BT-549 breast = test system: BT-549 breast
HL-60(TB) leukemia = test system: HL-60(TB) leukemia
COLO 205 colon = test system: COLO 205 colon
MDA-MB-231 breast = test system: MDA-MB-231 breast
LOX IMVI melanoma = test system: LOX IMVI melanoma
786-0 renal = test system: 786-0 renal
K-562 leukemia = test system: K-562 leukemia
RPMI-8226 leukemia = test system: RPMI-8226 leukemia
SW-620 colon = test system: SW-620 colon
NCI-H460 lung = test system: NCI-H460 lung
SK-MEL-2 melanoma = test system: SK-MEL-2 melanoma
EKVX NSCLC = test system: EKVX NSCLC
HT29 colon = test system: HT29 colon
U251 CNS = test system: U251 CNS
SK-MEL-28 melanoma = test system: SK-MEL-28 melanoma
T-47D breast = test system: T-47D breast
DU-145 prostate = test system: DU-145 prostate
CCRF-CEM leukemia = test system: CCRF-CEM leukemia

Measured: TGI

O=C(c1ccccc1)c1c2ccccn2c2cccc[n+]12
> 100 µM: PC-3 prostate | KM12 colon | OVCAR-4 ovarian | SF-295 CNS | NCI/ADR-RES ovarian | OVCAR-3 ovarian | OVCAR-5 ovarian | A498 renal | A549 NSCLC | NCI-H226 lung | HOP-92 NSCLC | SF-539 CNS | SK-OV-3 ovarian | HOP-62 NSCLC | MCF7 breast | RXF 393 renal | OVCAR-8 ovarian | SNB-75 CNS | MALME-3M melanoma | IGROV1 ovarian | HS 578T breast | TK-10 renal | CAKI-1 renal | HCC-2998 colon | HCT-116 colon | UACC-257 melanoma | MDA-MB-435 | HCT-15 colon | UACC-62 melanoma | M14 melanoma | SK-MEL-5 melanoma | SR leukemia | MOLT-4 leukemia | SF-268 CNS | BT-549 breast | HL-60(TB) leukemia | COLO 205 colon | MDA-MB-231 breast | LOX IMVI melanoma | 786-0 renal | K-562 leukemia | RPMI-8226 leukemia | SW-620 colon | NCI-H460 lung | SK-MEL-2 melanoma | EKVX NSCLC | HT29 colon | U251 CNS | SK-MEL-28 melanoma | T-47D breast | DU-145 prostate | CCRF-CEM leukemia
